The subject of data set [1] is HIV-1 94US3393IN (B-Wild Type). The data set can be described thus: PBMC multi-round infection assay, clinical isolate 94US3393IN. The class given is cell-based. The following applies: Human immunodeficiency virus 1. As to the method: (§1) Based on a preliminary screening, conjugates 5 and 8 were evaluated for their ability to inhibit a drug-resistant virus in a peripheral blood mononuclear cell (PBMC) assay. In this assay, FLT, 5, and 8 were tested against B- and C-wild type and A-17 and 4755–5 multidrug-resistant (MDR) clinical isolates of HIV-1, where compounds were incubated with PBMCs for 6 h and then washed off before the addition of the virus and further culture for 7 days.
(§2) For the assessment of compounds against the wild type (WT; R5; clones = 94US3393IN [B subtype] and 98USMSC5016 [C subtype]) and drug-resistant (clones = 4755−5 and A17) HIV-1 clinical isolates, PHA-P stimulated cells from at least two normal donors were pooled, diluted in fresh media, and plated in the interior wells of a 96-well round-bottom microplate. Pooling PBMCs from more than one donor was used to minimize the variability observed between the individual donors, which results from the quantitative and qualitative differences in HIV infection and overall response to the PHA and IL-2 of primary lymphocyte populations. Each plate contained virus/cell control wells (cells + virus), experimental wells (drug + cells + virus), and compound control wells (drug + media, no cells, necessary for MTS monitoring of cytotoxicity). Test drug dilutions were prepared in microtiter tubes, and each concentration was placed in appropriate wells. Following the addition of the drug dilutions to the PBMCs, a predetermined dilution of virus stock was then placed in each test well (final MOI ≅ 0.1). Because HIV-1 is not cytopathic to PBMCs, the same assay plate can be used for both the antiviral efficacy and cytotoxicity measurements. Compounds were incubated with virus and cells in a 96-well format for 6 h. The cells were then washed by removing 75% of the medium (150 μL) and replacing it with 150 μL of fresh (no drug) medium. The plates were then centrifuged (∼200 g) for 10 min, after which 150 μL of the medium was removed, and an additional 150 μL of fresh medium was added to each well and further incubated for 6 days or until peak reverse transcriptase (RT) activity was detected. A microtiter plate-based RT reaction was utilized. Incorporated radioactivity (counts per minute, CPM) was quantified using standard liquid scintillation techniques. Compound IC50 (50%, inhibition of virus replication) was calculated using statistical software and regression analysis. A cellular uptake study was conducted for fluorescence conjugates 23 and 24 using a previously published procedure with minor modifications. All of the experiments were conducted in triplicate.

For data set [2], the system named is HIV-1 4755-5 MDR (B-MDR). The data set can be described thus: PBMC multi-round infection assay, resistant isolate 4755-5. The class given is cell-based. As to the method:
as §1, §2

Data set [3] in a line: pKa by dip-probe absorption spectroscopy (D-PAS). Format: physicochemical. As to conditions: methanol-water co-solvent, Yasuda-Shedlovsky extrapolation. How it is done:
Physicochemical properties including pKa, Log D, and solubility were determined for 5 (as a model compound). […] It was not possible to measure the partition coefficient (Log P) of the fatty acyl derivatives of FLT and AZT in a standard n-octanol/water mixture because of the insolubility of the compounds in water. The cLog P value was calculated as 5.23 using ChemDraw. […] Since most of 5 is in its neutral form, the Log D value will correspond to the Log P value.
The pKa for 5 was determined using dip-probe absorption spectroscopy (D-PAS). The sample was initially titrated in a fast titration between pH 1.8 and pH 12.1 at concentrations of 33–49 µM under aqueous conditions. Precipitation of the sample from the solution was observed below approximately pH 11. The sample was subsequently titrated under methanol–water co-solvent conditions in two triple titrations from pH 12.2 to pH 3.7 at concentrations of 31–49 µM. The methanol ratio varied from to 25.5–50.8%. No precipitation of the sample from the solution was observed under this condition. The pKa was determined from the spectroscopic data by the Yasuda–Shedlovsky extrapolation of the individual obtained results.

The subject of data set [4] is sperm. The data set can be described thus: Spermicidal activity (sperm viability and motility). The class given is cell-based. As to conditions: abstract; versus N-9 positive control. As to the method:
In this study, several fatty acyl conjugates of nucleosides (5–8, 10–12, 15, and 16) were tested for their spermicidal activities. […] Detailed data analysis is available in the Supplementary Materials (Figure S2).
Human T lymphoblastoid cells (CCRF-CEM, ATCC No. CCL-119) were grown to 70% confluency in a culture medium. CCRF-CEM cells were incubated with 10 µM of the compounds and mixed with trypan blue (0.1%) to color the dead cells. The percentage of viability was calculated by using a Cellometer Auto T.4 (Nexcelom Bioscience). The cell viability against the vaginal cells (VK-2/E6E7) was conducted according to the previously reported procedure. The effect of conjugates on the sperm viability and mobility was evaluated as described previously.

Data set [5] has as its system HIV-1. The data set can be described thus: Anti-HIV activity overall (cell-free and cell-associated assays) and antiviral index. Format: cell-based. An excerpt:
Table 2, Table 3 and Table 4 illustrate the anti-HIV-1 activities against the cell-free, cell-associated, and multidrug-resistant virus and sperm inhibiting properties of the selected compounds. In summary, the anti-HIV activity of 5′-substituted derivatives of FLT and AZT (5–18) was dependent on the nature of the 5′-substituent. […] None of the other esters were active against cell-associated virus. […] The difference in the activity of fatty acyl derivatives of FLT compared to each other and FLT may be due to their differences in the rate of uptake and intracellular hydrolysis.
By design, the ester moiety in the conjugates needs to be hydrolyzed to render parent nucleosides and fatty acids to produce anti-HIV activity. The anti-HIV activities of 5′-O-ether substituted FLT and AZT (3 and 4, Scheme 2) with a stable tetradecanyl (myristyl) group were compared with hydrolyzable 5′-O-ester substituted FLT and AZT (6 and 7).
Anti-HIV activities of the compounds were evaluated according to the previously reported procedure. In summary, the HeLa (Human cervical carcinoma: ATCC CCL-2.1) cell line was used to measure the inactivation of both the cell-free virus preparations and virus-infected cell preparations. The cells were plated in culture plates 24 h prior to each experiment. Cell-free viral preparations of HIV-1 strains IIIB (lymphocytotropic strain) and BaL (monocytotropic strain) were used for the cell-free assay. For the cell-associated assay, the SulT1 cells were infected with IIIB virus 5 days prior to the experiment. Cell-free virus and virus-infected cells were mixed with different compounds and diluted to make different concentrations. The mixture was further diluted with the buffer and added to the HeLa cells.

[6] abbreviates: Human immunodeficiency virus 1, PBMC.

What is called IC50 is the midpoint of a concentration-inhibition curve. A low value points to inhibition by little substance. A word on the IC90: it is the concentration at which the effect reaches the 90% level. Read a high IC90 as a need for much substance. One may read the pKa as the negative logarithm of the acid dissociation constant.

Structures are written as SMILES. Bounds are passed on as bounds.

On to `Cc1cn([C@H]2C[C@H](F)[C@@H](COC(=O)CCCCCCCCCCCN=[N+]=[N-])O2)c(=O)[nH]c1=O` [Compound 5, 3′-fluoro-2′,3′-dideoxy-5′-O-(12-azidododecanoyl)thymidine], for which the results for the IC50 in data set [1] and in data set [2] (setting [6]) were 1.1 nM and 39.6 nM, respectively. Moreover, the values for the IC90 in data set [1] and in data set [2] (setting [6]) were 6.4 nM and 507 nM, respectively. Also, the “fold more potent than FLT against 4755-5” value in data set [2] (versus FLT IC50) was at least 2.7 fold. Moreover, the pKa in data set [3] was 9.67. The “effect on sperm viability” value in data set [4] is “did not alter vaginal cell and sperm viability”. For the same compound, the “anti-HIV activity (in words)” value in data set [5] is on record as “significant anti-HIV activity at noncytotoxic concentrations”. Moreover, the “antiviral index, times better than AZT” value in data set [5] (versus AZT) was over 30 times. Also, in data set [5] (versus FLT), the “antiviral index, times better than FLT” value is reported as over 4 times.

These data come from article PMC9143043, “Synthesis and Biological Evaluation of 5′-O-Fatty Acyl Ester Derivatives of 3′-Fluoro-2′,3′-dideoxythymidine as Potential Anti-HIV Microbicides” (Molecules, 2022).
